Results from PubChem BioAssay (NCI).
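Step 1: Grow cells in 96-well plates. Step 2: Expose to compound for 48 hours at 5 concentrations. Step 3: Interpolate endpoints linearly; if unreached, use highest concentration. TGI is the concentration that stops growth completely.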

Assays:
Experiment in all cases: NCI-60 cell line screen, 48 h
[1] = tested on: A498 renal
[2] = tested on: ACHN renal
[3] = tested on: BT-549 breast
[4] = tested on: CAKI-1 renal
[5] = tested on: CCRF-CEM leukemia
[6] = tested on: COLO 205 colon
[7] = tested on: DU-145 prostate
[8] = tested on: EKVX NSCLC
[9] = tested on: HCC-2998 colon
[10] = tested on: HCT-116 colon
[11] = tested on: HCT-15 colon
[12] = tested on: HL-60(TB) leukemia
[13] = tested on: HOP-62 NSCLC
[14] = tested on: HS 578T breast
[15] = tested on: HT29 colon
[16] = tested on: IGROV1 ovarian
[17] = tested on: K-562 leukemia
[18] = tested on: KM12 colon
[19] = tested on: M14 melanoma
[20] = tested on: MALME-3M melanoma
[21] = tested on: MCF7 breast
[22] = tested on: MDA-MB-231 breast
[23] = tested on: MDA-N
[24] = tested on: MOLT-4 leukemia
[25] = tested on: NCI-H226 lung
[26] = tested on: NCI-H23 lung
[27] = tested on: NCI-H460 lung
[28] = tested on: NCI-H522 lung
[29] = tested on: NCI/ADR-RES ovarian
[30] = tested on: OVCAR-3 ovarian
[31] = tested on: OVCAR-4 ovarian
[32] = tested on: OVCAR-5 ovarian
[33] = tested on: OVCAR-8 ovarian
[34] = tested on: PC-3 prostate
[35] = tested on: SF-268 CNS
[36] = tested on: SF-295 CNS
[37] = tested on: SK-MEL-2 melanoma
[38] = tested on: SK-MEL-28 melanoma
[39] = tested on: SK-MEL-5 melanoma
[40] = tested on: SK-OV-3 ovarian
[41] = tested on: SN12C renal
[42] = tested on: SNB-19 CNS
[43] = tested on: SNB-75 CNS
[44] = tested on: SR leukemia
[45] = tested on: SW-620 colon
[46] = tested on: T-47D breast
[47] = tested on: TK-10 renal
[48] = tested on: U251 CNS
[49] = tested on: UACC-257 melanoma
[50] = tested on: UACC-62 melanoma
[51] = tested on: UO-31 renal
[52] = tested on: 786-0 renal
[53] = tested on: A549 NSCLC
[54] = tested on: HOP-92 NSCLC
[55] = tested on: LOX IMVI melanoma
[56] = tested on: MDA-MB-435
[57] = tested on: RPMI-8226 leukemia
[58] = tested on: RXF 393 renal
[59] = tested on: SF-539 CNS

## O=C(O)Cc1ccc(N2N=C(c3ccccc3)CC2=O)cc1
[1]
  TGI: > 100 µM
[2]
  TGI: > 100 µM
[3]
  TGI: > 100 µM
[4]
  TGI: > 100 µM
[5]
  TGI: > 100 µM
[6]
  TGI: > 100 µM
[7]
  TGI: > 100 µM
[8]
  TGI: > 100 µM
[9]
  TGI: > 100 µM
[10]
  TGI: > 100 µM
[11]
  TGI: > 100 µM
[12]
  TGI: > 100 µM
[13]
  TGI: > 100 µM
[14]
  TGI: > 100 µM
[15]
  TGI: > 100 µM
[16]
  TGI: > 100 µM
[17]
  TGI: > 100 µM
[18]
  TGI: > 100 µM
[19]
  TGI: > 100 µM
[20]
  TGI: > 100 µM
[21]
  TGI: > 100 µM
[22]
  TGI: > 100 µM
[23]
  TGI: > 100 µM
[24]
  TGI: > 100 µM
[25]
  TGI: > 100 µM
[26]
  TGI: > 100 µM
[27]
  TGI: > 100 µM
[28]
  TGI: > 100 µM
[29]
  TGI: > 100 µM
[30]
  TGI: > 100 µM
[31]
  TGI: > 100 µM
[32]
  TGI: > 100 µM
[33]
  TGI: > 100 µM
[34]
  TGI: > 100 µM
[35]
  TGI: > 100 µM
[36]
  TGI: > 100 µM
[37]
  TGI: > 100 µM
[38]
  TGI: > 100 µM
[39]
  TGI: > 100 µM
[40]
  TGI: > 100 µM
[41]
  TGI: > 100 µM
[42]
  TGI: > 100 µM
[43]
  TGI: > 100 µM
[44]
  TGI: > 100 µM
[45]
  TGI: > 100 µM
[46]
  TGI: > 100 µM
[47]
  TGI: > 100 µM
[48]
  TGI: > 100 µM
[49]
  TGI: > 100 µM
[50]
  TGI: > 100 µM
[51]
  TGI: > 100 µM

## C=C1C(=O)OC2/C=C(\C)C(O)CC(O)C(C)(O)CC(OC(=O)/C(C)=C/C)C12 (centres undefined)
[52]
  TGI: > 100 µM
[1]
  TGI: > 84.3 µM
[53]
  TGI: > 100 µM
[2]
  TGI: > 100 µM
[3]
  TGI: 83.9 µM
[4]
  TGI: > 100 µM
[5]
  TGI: > 82.8 µM
[6]
  TGI: > 100 µM
[7]
  TGI: > 100 µM
[8]
  TGI: > 100 µM
[9]
  TGI: > 100 µM
[10]
  TGI: > 100 µM
[11]
  TGI: > 100 µM
[12]
  TGI: > 82.8 µM
[13]
  TGI: > 100 µM
[54]
  TGI: 99.8 µM
[14]
  TGI: > 100 µM
[15]
  TGI: > 100 µM
[16]
  TGI: > 100 µM
[17]
  TGI: > 100 µM
[18]
  TGI: > 75.8 µM
[55]
  TGI: > 100 µM
[19]
  TGI: > 100 µM
[20]
  TGI: > 100 µM
[21]
  TGI: > 100 µM
[22]
  TGI: > 100 µM
[56]
  TGI: > 100 µM
[23]
  TGI: > 100 µM
[24]
  TGI: > 100 µM
[25]
  TGI: > 100 µM
[26]
  TGI: > 100 µM
[27]
  TGI: > 100 µM
[28]
  TGI: > 100 µM
[30]
  TGI: > 100 µM
[31]
  TGI: > 100 µM
[32]
  TGI: > 100 µM
[33]
  TGI: > 100 µM
[34]
  TGI: > 100 µM
[57]
  TGI: 74.2 µM
[58]
  TGI: > 100 µM
[35]
  TGI: > 100 µM
[36]
  TGI: > 100 µM
[59]
  TGI: > 100 µM
[37]
  TGI: > 100 µM
[38]
  TGI: > 100 µM
[39]
  TGI: > 100 µM
[40]
  TGI: > 100 µM
[41]
  TGI: > 100 µM
[42]
  TGI: > 100 µM
[43]
  TGI: > 94.2 µM
[44]
  TGI: > 55.9 µM
[45]
  TGI: > 100 µM
[46]
  TGI: > 100 µM
[47]
  TGI: > 100 µM
[48]
  TGI: > 100 µM
[49]
  TGI: > 100 µM
[50]
  TGI: > 100 µM
[51]
  TGI: > 100 µM
